Reference: patent US20180362654A1, “Methods for Reducing or Preventing Growth of Tumors Resistant to EGFR and/or ErbB3 Blockade” (Regeneron Pharmaceuticals, Inc., priority 2015, published 2018)

Columns and labels:
Detroit 562 cells = assay: Tumor cell growth assay (MTS), Detroit 562 cells expressing FGFR3-TACC3 fusion proteins; assay type: cell-based, human; conditions: 72 hours, 5 μM BYL719
Experimental: (§1) The bar graphs show the relative cell growth in each treatment group, as determined by MTS assay. Error bars show the standard deviation, n=8. […] The bar graphs show the relative cell growth in each treatment group, as determined by MTS assay. Error bars show the SD, n=8. FIGS. 11C-11D respectively show SNU1076 or Detroit 562 cells expressing wild-type FGFR3 or FGFR3-TACC3 fusion proteins that were grown for 72 hours in the presence of vehicle or 5 μM PI3K inhibitor BYL719. The bar graphs show the relative cell growth in each treatment group, as determined by MTS assay. Error bars show the standard deviation, n=8. […] Cell lysates were prepared and subjected to western blot with antibodies against phospho-ERK, ERK, phospho-AKT, or AKT.
(§2) To assess tumor cell growth, 2-3,000 cells were plated in 96-well plates (n=8 replicate wells per treatment group) in serum-containing medium. The day after plating, the baseline (0 hour) cell number was determined by MTS assay using the CellTiter96 Aqueous One Solution Cell Proliferation Assay (Promega). […] At 72 hours, the final cell number was determined by MTS assay. The relative cell growth for each treatment group was determined by subtracting the baseline MTS reading from the final MTS reading. […]

SNU1076 cells = assay: Tumor cell growth assay (MTS), SNU1076 cells expressing FGFR3-TACC3 fusion proteins; assay type: cell-based, human; conditions: 72 hours, 5 μM BYL719
Experimental: as §1, §2

AKT = AKT activation by western blot (phospho-AKT); assay type: cell-based, human; conditions: REGN1400 5 μg/ml, REGN955 10 μg/ml, AZD4547 25 nM
Experimental: (§3) For analysis of cell signaling by western blot, tumor cells were treated with the following reagents: ErbB3 blocking REGN1400, EGFR blocking antibody REGN955, MEK inhibitor GSK1120212 (Selleckchem), FGFR TKI AZD4547 (Selleckchem), MET TKI PHA665752 (Sigma), PI3K inhibitor BYL719, human NRG1 (R&D Systems), human EGF (R&D Systems). Following treatment, cell lysates were subjected to western blot with the following antibodies: phospho-ErbB3 (Cell Signaling Technology (CST), cat. #4561), EGFR (CST, cat. #2646), phospho-EGFR (CST, cat. #2234), Akt (CST, cat. #9272), phospho-Akt (CST, cat. #4060), ERK (CST, cat. #4695), phospho-ERK (CST, cat. #4370), MET (CST, cat. #8198), phospho-MET (CST, cat. #3077), ErbB3 (CST, cad.#4754), phospho-FGFR (CST, cat. #3476).

FGFR3 = FGFR3 phosphorylation by anti-phosphotyrosine immunoprecipitation and western blot; assay type: cell-based, human; conditions: FaDu V2 cells; 25 nM AZD4547; 1 hour
Experimental: FIGS. 4A-4F provide evidence that FGFR3 is activated in FaDu resistant variant cell lines and maintains ERK signaling upon EGFR blockade. […] Active RTKs of note are boxed and labeled. The unlabeled spots on the corners of the membranes are positive controls. […] The presence of FGFR3 and Src in the immunoprecipitates was assessed by western blot. […] Following treatment, cell lysates were subjected to western blot with antibodies against phospho-ERK, ERK, phospho-MET and MET. […] Following treatment, cell lysates were subjected to immunoprecipitation with anti-phosphotyrosine antibody 4G10 conjugated to agarose beads. The presence of FGFR3 and Src in the immunoprecipitates was assessed by western blot. […] Following treatment, cell lysates were subjected to western blot with antibodies against phospho-ERK, ERK, phospho-AKT and AKT.
To assess the tyrosine phosphorylation status of FGFR3-TACC3 fusion proteins in FaDu V1 and V2 cell lines, cells growing in 10 cm dishes were lysed in 1 ml of buffer (150 mM NaCl/20 mM Tris, pH 7.5/1% Triton X-100) containing Halt Protease and Phosphatase Inhibitor Cocktail (Thermo Scientific). […]

ERK = ERK activation by western blot (phospho-ERK); assay type: cell-based, human; conditions: REGN1400 5 μg/ml, REGN955 10 μg/ml, AZD4547 25 nM
Experimental: as §3

NCI-H1975 cells = assay: Tumor cell growth assay (MTS), NCI-H1975 cells expressing FGFR3-TACC3 fusion proteins; assay type: cell-based, human; conditions: 72 hours, 50 nM AZD9291
Experimental: as §1, §2

MET = target: T1, MET (Homo sapiens, UniProt P08581); assay: MET phosphorylation by western blot; assay type: cell-based; conditions: FaDu V2 cells; 100 nM PHA665752; 30 minutes
T1 construct: Fadu V2 cells that were treated for 30 minutes with control antibody; endogenous in cells
T1 sequence (P08581 25-1390): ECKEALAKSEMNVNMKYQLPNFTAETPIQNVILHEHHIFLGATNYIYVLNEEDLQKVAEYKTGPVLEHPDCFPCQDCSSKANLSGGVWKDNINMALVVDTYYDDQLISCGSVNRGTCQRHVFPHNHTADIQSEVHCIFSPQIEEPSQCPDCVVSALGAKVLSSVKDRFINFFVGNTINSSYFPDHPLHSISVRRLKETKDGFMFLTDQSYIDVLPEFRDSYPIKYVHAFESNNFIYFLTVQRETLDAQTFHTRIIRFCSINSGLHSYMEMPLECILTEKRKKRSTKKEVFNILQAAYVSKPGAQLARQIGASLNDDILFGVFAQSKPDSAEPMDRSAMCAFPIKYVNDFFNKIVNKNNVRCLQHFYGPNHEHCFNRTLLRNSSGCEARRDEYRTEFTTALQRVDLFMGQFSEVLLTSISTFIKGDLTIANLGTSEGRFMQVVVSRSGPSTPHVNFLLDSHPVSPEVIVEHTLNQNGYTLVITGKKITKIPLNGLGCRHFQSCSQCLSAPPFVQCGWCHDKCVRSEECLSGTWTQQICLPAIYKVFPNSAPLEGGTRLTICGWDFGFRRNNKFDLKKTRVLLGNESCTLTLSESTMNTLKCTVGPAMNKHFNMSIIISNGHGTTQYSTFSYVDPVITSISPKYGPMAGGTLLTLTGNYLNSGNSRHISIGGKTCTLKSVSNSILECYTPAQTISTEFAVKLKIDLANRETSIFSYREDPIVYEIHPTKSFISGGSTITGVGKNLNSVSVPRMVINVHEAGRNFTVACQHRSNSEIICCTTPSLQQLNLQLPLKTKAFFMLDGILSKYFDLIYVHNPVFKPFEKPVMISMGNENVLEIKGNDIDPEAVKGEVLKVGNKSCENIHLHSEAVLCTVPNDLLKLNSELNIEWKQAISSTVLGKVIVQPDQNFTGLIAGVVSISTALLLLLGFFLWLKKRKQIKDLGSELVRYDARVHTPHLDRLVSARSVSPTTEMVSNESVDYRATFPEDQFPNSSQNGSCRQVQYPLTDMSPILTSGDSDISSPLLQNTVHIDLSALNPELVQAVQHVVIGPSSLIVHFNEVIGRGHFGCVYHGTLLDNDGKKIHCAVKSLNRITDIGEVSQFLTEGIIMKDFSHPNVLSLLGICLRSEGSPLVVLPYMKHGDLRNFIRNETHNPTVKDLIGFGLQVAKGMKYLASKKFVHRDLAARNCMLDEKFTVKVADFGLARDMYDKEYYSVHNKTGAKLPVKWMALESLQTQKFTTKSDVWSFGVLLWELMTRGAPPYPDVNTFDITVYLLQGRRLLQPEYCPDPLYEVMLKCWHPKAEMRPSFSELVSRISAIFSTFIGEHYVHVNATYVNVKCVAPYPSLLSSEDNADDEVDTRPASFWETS
Excerpt: Following treatment, cell lysates were subjected to western blot with antibodies against phospho-ERK, ERK, phospho-MET and MET. […] Following treatment, cell lysates were subjected to western blot with the following antibodies: phospho-ErbB3 (Cell Signaling Technology (CST), cat. #4561), EGFR (CST, cat. #2646), phospho-EGFR (CST, cat. #2234), Akt (CST, cat. #9272), phospho-Akt (CST, cat. #4060), ERK (CST, cat. #4695), phospho-ERK (CST, cat. #4370), MET (CST, cat. #8198), phospho-MET (CST, cat. #3077), ErbB3 (CST, cad.#4754), phospho-FGFR (CST, cat. #3476).

[1] = FaDu V2 cells, GSK1120212 100 nM, PHA665752 100 nM

Compound: Cc1nc(NC(=O)N2CCC[C@H]2C(N)=O)sc1-c1ccnc(C(C)(C)C(F)(F)F)c1 [BYL719, alpelisib]
- growth inhibition in cells expressing FGFR3-TACC3 fusion proteins (Detroit 562 cells): neither of the FGFR3-TACC3 fusion proteins was able to confer substantial resistance
- growth inhibition in cells expressing FGFR3-TACC3 fusion proteins (SNU1076 cells): neither of the FGFR3-TACC3 fusion proteins was able to confer substantial resistance

Compound: COc1cc(CCc2cc(NC(=O)c3ccc(N4CC(C)NC(C)C4)cc3)n[nH]2)cc(OC)c1 (stereo not shown) [AZD4547]
- inhibition of AKT activation (AKT; FaDu V1 cells): no effect on AKT activation
- inhibition of AKT activation (AKT; FaDu V2 cells, GSK1120212 100 nM): no effect on AKT activation
- inhibition of FGFR3 phosphorylation (FGFR3): completely blocked FGFR3 phosphorylation
- inhibition of ERK activation (ERK; FaDu V1 cells): either no effect or a partial effect
- inhibition of ERK activation (ERK; [1]): either no effect or a partial effect

Compound: C=CC(=O)Nc1cc(Nc2nccc(-c3cn(C)c4ccccc34)n2)c(OC)cc1N(C)CCN(C)C [AZD9291]
- growth inhibition in cells expressing FGFR3-TACC3 fusion proteins (NCI-H1975 cells): promote resistance

Compound: Cc1[nH]c(/C=C2\C(=O)Nc3ccc(S(=O)(=O)Cc4c(Cl)cccc4Cl)cc32)c(C)c1C(=O)N1CCC[C@@H]1CN1CCCC1 [PHA665752]
- inhibition of MET phosphorylation (MET): completely blocking MET phosphorylation
- inhibition of ERK activation (ERK; [1]): did not inhibit ERK activation
